Laboratory results reported in ChEMBL document CHEMBL4229566, “Discovery of ( S)-3-(3-(3,5-Dimethyl-1 H-pyrazol-1-yl)phenyl)-4-(( R)-3-(2-(5,6,7,8-tetrahydro-1,8-naphthyridin-2-yl)ethyl)pyrrolidin-1-yl)butanoic Acid, a Nonpeptidic αvβ6 Integrin Inhibitor for the Inhaled Treatment of Idiopathic Pulmonary Fibrosis” (J Med Chem, 2018).

Experiments:
[1] = molecular target: T1, Integrin alpha-V/beta-6 (Homo sapiens, UniProt P06756+P18564)
Description: Binding affinity to human integrin alphaVbeta6 assessed as dissociation half life up to 48 hrs by liquid scintillation counting

[2] = molecular target: T1, Integrin alpha-V/beta-6; remark: listed apart in the source
Target sequence in this assay (P06756 31-889 limits assumed): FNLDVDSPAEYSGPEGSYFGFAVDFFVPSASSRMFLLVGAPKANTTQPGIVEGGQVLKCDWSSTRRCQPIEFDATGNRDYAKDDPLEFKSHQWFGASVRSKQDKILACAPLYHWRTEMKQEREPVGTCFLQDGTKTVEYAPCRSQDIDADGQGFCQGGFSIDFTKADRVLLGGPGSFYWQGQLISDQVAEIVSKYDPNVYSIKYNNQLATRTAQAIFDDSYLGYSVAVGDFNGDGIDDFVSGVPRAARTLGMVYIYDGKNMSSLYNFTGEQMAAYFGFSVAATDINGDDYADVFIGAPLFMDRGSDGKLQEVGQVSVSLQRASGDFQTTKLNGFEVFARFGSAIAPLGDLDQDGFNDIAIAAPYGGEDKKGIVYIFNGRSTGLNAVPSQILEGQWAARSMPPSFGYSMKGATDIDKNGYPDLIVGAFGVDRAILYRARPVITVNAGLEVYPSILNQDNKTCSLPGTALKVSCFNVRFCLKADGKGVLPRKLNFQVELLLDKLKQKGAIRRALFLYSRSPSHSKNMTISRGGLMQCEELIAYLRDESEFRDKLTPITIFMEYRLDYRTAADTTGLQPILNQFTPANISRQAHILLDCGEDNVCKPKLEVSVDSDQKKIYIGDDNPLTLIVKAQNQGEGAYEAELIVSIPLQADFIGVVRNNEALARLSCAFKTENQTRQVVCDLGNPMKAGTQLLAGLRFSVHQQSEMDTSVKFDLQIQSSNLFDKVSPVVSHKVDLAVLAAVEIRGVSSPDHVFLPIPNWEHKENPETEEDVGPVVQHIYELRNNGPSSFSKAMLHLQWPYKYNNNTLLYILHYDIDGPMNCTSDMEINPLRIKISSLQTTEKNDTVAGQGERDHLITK
Target sequence in this assay (P06756 891-1048 limits assumed): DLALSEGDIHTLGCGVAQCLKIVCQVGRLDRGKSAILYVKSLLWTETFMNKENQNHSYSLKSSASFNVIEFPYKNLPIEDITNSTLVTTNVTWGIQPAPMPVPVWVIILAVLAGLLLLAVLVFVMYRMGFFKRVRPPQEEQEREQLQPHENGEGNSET
Target sequence in this assay (P18564 22-788 limits assumed): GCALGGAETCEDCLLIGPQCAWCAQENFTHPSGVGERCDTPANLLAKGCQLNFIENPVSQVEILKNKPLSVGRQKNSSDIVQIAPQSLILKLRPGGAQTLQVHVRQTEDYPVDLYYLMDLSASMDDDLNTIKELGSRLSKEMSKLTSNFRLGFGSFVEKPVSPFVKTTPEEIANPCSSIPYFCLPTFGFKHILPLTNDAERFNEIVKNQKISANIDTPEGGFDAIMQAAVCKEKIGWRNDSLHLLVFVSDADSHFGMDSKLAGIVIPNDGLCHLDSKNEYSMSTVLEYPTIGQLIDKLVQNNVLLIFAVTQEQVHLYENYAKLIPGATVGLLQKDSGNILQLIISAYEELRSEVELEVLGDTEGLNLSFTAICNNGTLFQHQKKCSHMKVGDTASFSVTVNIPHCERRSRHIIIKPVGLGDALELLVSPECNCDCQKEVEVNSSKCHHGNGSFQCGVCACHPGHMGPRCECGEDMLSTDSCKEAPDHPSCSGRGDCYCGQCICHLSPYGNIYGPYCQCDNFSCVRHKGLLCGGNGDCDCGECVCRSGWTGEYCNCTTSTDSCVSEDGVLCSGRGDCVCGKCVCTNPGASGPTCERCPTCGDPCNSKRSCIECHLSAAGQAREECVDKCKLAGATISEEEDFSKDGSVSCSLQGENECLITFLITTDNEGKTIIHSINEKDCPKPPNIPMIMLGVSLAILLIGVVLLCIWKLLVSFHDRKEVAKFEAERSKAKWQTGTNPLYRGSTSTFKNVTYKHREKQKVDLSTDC

[3] = molecular target: T2, Voltage-gated inwardly rectifying potassium channel KCNH2 (Homo sapiens, UniProt Q12809)
Description: Inhibition of human ERG expressed in HEK293 cells by Q-patch assay

[4] = molecular target: T2, Voltage-gated inwardly rectifying potassium channel KCNH2; remark: listed apart in the source
Description: Inhibition of human ERG expressed in HEK293 cells by Barracuda automated patch clamp assay

[5] = physchem; details: buffer, pH 7.4, logD
[6] = Protein binding in human blood at 1 ug/ml after 4 hrs by LC-MS/MS analysis; assay type: ADME, tissue-based; details: at 1 µg/mL, read-out: PB (converted)
[7] = Toxicity in rabbit cardiac ventricular wedge assessed as increase in QT interval prolongation at 1 to 3 uM; assay type: tissue-based, Oryctolagus cuniculus, Cardiac ventricle

T2 sequence (Q12809 whole entry): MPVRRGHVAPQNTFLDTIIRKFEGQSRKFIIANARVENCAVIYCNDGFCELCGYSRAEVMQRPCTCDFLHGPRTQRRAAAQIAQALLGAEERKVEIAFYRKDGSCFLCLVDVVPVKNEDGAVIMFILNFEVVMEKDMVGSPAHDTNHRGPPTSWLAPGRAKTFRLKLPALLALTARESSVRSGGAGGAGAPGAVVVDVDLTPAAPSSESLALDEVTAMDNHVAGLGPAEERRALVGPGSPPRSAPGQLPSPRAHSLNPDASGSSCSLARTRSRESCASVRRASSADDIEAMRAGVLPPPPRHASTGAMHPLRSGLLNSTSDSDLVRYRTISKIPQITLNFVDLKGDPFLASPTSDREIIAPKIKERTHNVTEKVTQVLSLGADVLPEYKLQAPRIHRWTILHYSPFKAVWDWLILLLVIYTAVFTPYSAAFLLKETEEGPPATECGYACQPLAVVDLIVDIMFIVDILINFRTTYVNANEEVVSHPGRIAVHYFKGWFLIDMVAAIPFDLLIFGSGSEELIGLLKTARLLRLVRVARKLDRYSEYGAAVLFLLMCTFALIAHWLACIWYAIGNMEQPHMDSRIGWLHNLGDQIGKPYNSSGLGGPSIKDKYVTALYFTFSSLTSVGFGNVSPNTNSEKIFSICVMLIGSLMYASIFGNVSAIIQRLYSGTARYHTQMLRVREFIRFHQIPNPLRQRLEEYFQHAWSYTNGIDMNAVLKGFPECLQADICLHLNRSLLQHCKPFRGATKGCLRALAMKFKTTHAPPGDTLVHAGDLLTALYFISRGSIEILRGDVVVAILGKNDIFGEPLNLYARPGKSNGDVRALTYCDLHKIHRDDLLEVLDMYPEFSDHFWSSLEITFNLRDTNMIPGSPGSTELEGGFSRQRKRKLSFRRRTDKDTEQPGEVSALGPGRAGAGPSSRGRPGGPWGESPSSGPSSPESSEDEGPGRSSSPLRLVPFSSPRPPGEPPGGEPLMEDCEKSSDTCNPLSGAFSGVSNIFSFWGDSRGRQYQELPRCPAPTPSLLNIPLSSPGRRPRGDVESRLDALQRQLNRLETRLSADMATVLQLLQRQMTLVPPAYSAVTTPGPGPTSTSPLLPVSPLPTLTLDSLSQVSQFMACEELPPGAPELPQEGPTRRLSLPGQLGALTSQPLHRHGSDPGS

SMILES: N=C(N)Nc1cccc(C(=O)NCC(=O)NC(CC(=O)O)c2cc(Cl)cc(Cl)c2)c1 (centres undefined)
- T1/2 [1]: 5 min
- Ki [2]: 0.002 µM

SMILES: O=C(O)C[C@H](CN1CC[C@@H](CCc2ccc3c(n2)NCCC3)C1)c1cccc(OC2COC2)c1
- IC50 [3]: > 31.6 µM
- IC50 [4]: > 50.1 µM
- logD [5]: 2.07

SMILES: Cc1nc(C)n(-c2cccc([C@H](CC(=O)O)CN3CC[C@@H](CCc4ccc5c(n4)NCCC5)C3)c2)n1
- IC50 [3]: > 31.6 µM
- IC50 [4]: > 50.1 µM
- logD [5]: 1.66

SMILES: Cc1nncn1-c1cccc([C@H](CC(=O)O)CN2CC[C@@H](CCc3ccc4c(n3)NCCC4)C2)c1
- IC50 [3]: > 31.6 µM
- logD [5]: 1.77

SMILES: O=C(O)C[C@H](CN1CC[C@@H](CCc2ccc3c(n2)NCCC3)C1)c1cccc(C2CCOCC2)c1
- logD [5]: 2.62

SMILES: O=C(O)C[C@H](CN1CC[C@@H](CCc2ccc3c(n2)NCCC3)C1)c1cccc(N2CCOCC2)c1
- logD [5]: 2.27

SMILES: Cc1cc(-c2cccc([C@H](CC(=O)O)CN3CC[C@@H](CCc4ccc5c(n4)NCCC5)C3)c2)[nH]n1
- IC50 [3]: 25.1 µM
- IC50 [4]: > 50.1 µM
- logD [5]: 2.53

SMILES: O=C(O)C[C@H](CN1CC[C@@H](CCc2ccc3c(n2)NCCC3)C1)c1cccc(-n2ccnn2)c1
- fraction unbound at 4 h, 1 ug/ml [6]: 0.28
- IC50 [3]: > 31.6 µM
- IC50 [4]: > 50.1 µM
- logD [5]: 1.75

SMILES: O=C(O)C[C@H](CN1CC[C@@H](CCc2ccc3c(n2)NCCC3)C1)c1cccc(Br)c1
- IC50 [4]: 1.26 µM
- logD [5]: 3.15

SMILES: Cc1cc(C)n(-c2cc([C@H](CC(=O)O)CN3CC[C@@H](CCc4ccc5c(n4)NCCC5)C3)cc(N3CCOCC3)c2)n1
- IC50 [4]: > 63.1 µM
- logD [5]: 2.73

SMILES: O=C(O)C[C@H](CN1CC[C@@H](CCc2ccc3c(n2)NCCC3)C1)c1cccc(C2CC2)c1
- Activity [7]: Dose-dependent effect

SMILES: Cc1ccnn1-c1cccc([C@H](CC(=O)O)CN2CC[C@@H](CCc3ccc4c(n3)NCCC4)C2)c1
- fraction unbound at 4 h, 1 ug/ml [6]: 0.1

SMILES: O=C(O)C[C@H](CN1CC[C@@H](CCc2ccc3c(n2)NCCC3)C1)c1cccc(-n2cncn2)c1
- fraction unbound at 4 h, 1 ug/ml [6]: 0.4
- IC50 [3]: > 31.6 µM
- IC50 [4]: > 50.1 µM
- logD [5]: 1.95
